Results taken from patent US9808434B2, “Compound for treating cancer and diabetes” (CITY OF HOPE, priority 2011, dated 2017).

Columns and labels:
A2058 = test: MTT assay, A2058; type: cell-based; details: Homo sapiens, A2058, 96 h
Experimental: Cell density measurements were performed using a hemocytometer to count reproductive cells resistant to staining with trypan blue. Approximately 20,000 cells were plated into each well of 96-well flat-bottomed micro-titer plates. After 12 h or 24 h incubation at 37° C., medium containing either COH-SR4 (ranging 0-200 μM) or elesclomol (ranging 0-20 μM) were added to the cells. After 24 h, 48 h or 96 h incubation, 20 μL of 5 mg/mL MTT were introduced to each well and incubated for 2 h. The plates were centrifuged and medium was decanted. Cells were subsequently dissolved in 100 μl DMSO with gentle shaking for 2 h at room temperature, followed by measurement of OD570 (91).

[1] = tested on: B16-F0 mouse and A2058 human melanoma cells; test: Cell cycle FACS analysis, melanoma; type: cell-based; details: 18 h
Experimental: 2×10^5 cells were treated with COH-SR4 (0 μM, 5 μM or 10 μM) for 18 h at 37° C. After treatment, floating and adherent cells were collected, washed with PBS, and fixed with 70% ethanol. On the day of flow analysis, cell suspensions were centrifuged; counted and same numbers of cells were resuspended in 500 μL PBS in flow cytometry tubes. Cells were then incubated with 2.5 μL of RNase (stock 20 mg/mL) at 37° C. for 30 min after which they were treated with 10 μL of propidium iodide (stock 1 mg/mL) solution and then incubated at room temperature for 30 min in the dark. The stained cells were analyzed using the Beckman Coulter Cytomics FC500, Flow Cytometry Analyzer. Results were processed using CXP2.2 analysis software from Beckman Coulter.

PBT-017 = test: Glioma ATP viability assay, PBT-017; type: cell-based; details: 72 h
Experimental: (§1) Cells of each cell line (U251, U87, PBT-017, PBT018, PBT003 and PBT028) were treated with various concentrations (0˜100 μM) of COH-SR4 for 72 hours. Cell viabilities were determined by ATP viability assays. Data were represented as a ratio to vehicle (DMSO) control, and plotted as mean±SEM (n=12) obtained from 2˜3 experiments (FIG. 34A).
as §1, with “(U87, U251,” for “(U251, U87, PBT-017, PBT018,”, “PVT-017)” for “PBT028)”, “2-3” for “2˜3”, “34B).” for “34A).”
Cells of each cell line were treated with various concentrations (0˜100 μM) of COH-SR4 or various concentrations (0˜1000 μM) of TMZ for 72 hours. Cell viabilities were determined by ATP viability assays. Data were represented as a ratio to untreated cells as control, and plotted as mean±SEM (n=12) obtained from 2˜3 experiments (FIGS. 43A-B).

U251 glioma cells = test: Intracellular ROS (H2DCFDA+ cells), flow cytometry; type: cell-based; details: 2 or 10 μM, 24 hours
Experimental: Cells of U251 glioma cells or pNHA cell lines were treated with COH-SR4 at a concentration of 0 μM, 2 μM or 10 μM for 24 hours before intracellular ROS was assessed by flow cytometry (representative of 3 runs and samples in triplicate). ROS increased in the glioma cells treated with COH-SR4 as indicated by the increased amounts of H2DCFDA+ cells (FIG. 38).

PBT018 = test: Glioma ATP viability assay, PBT018; type: cell-based; details: Table 1; 72 hours
Experimental: as §1

U87 = test: Glioma ATP viability assay, U87; type: cell-based; details: Homo sapiens, U-87 MG; Table 1; 72 hours
Experimental: as §1
as §1, with “(U87, U251,” for “(U251, U87, PBT-017, PBT018,”, “PVT-017)” for “PBT028)”, “2-3” for “2˜3”, “34B).” for “34A).”

SK-Mel-5 = test: Colony formation assay, SK-Mel-5; type: cell-based, human; details: 5 μM
Experimental: Cell survival was evaluated using a standard colony-forming assay. In total, 1×10^5 cells/mL were incubated with COH-SR4 (1.5 μM or 5 μM) or elesclomol (5 μM) for 24 h, and aliquots of 50 or 100 μL were added to 60 mm size petri dishes, containing 4 mL culture medium. After 7 or 10 days, adherent colonies were fixed, stained with 0.5% methylene blue for 30 min and colonies were counted using the Innotech Alpha Imager HP (91).

A2058 cells = test: Annexin V / propidium iodide flow cytometry, A2058; type: cell-based, human
Experimental: Apoptosis of cells were measured based on loss of membrane integrity using Annexin V-FITC Apoptosis Detection Kit as described by the supplier (BD Biosciences Pharmingen, San Diego, Calif.), in which the early- and late-death cells were stained with Annexin V-FITC and propidium iodide. Cells were analyzed using a CyAn ADP cytometer (Beckman Coulter Inc) to quantify fluorescence. Apoptotic cells were defined as Annexin V-FITC positive.

PBT-017 glioma cells = test: Combination index with chemotherapy drugs, PBT-017; type: cell-based
Experimental: Effects of combination of COH-SR4 and a chemotherapy drug such as TMZ, SN38, CPT-11, and 5-FU were studied by combination index (CI) theorem and plot using the method described in Chou (“Experimental Design, and Computerized Simulation of Synergism and Antagonism in Drug Combination Studies,” Pharmacological Reviews, Vol. 58, No. 3), which is incorporated herein by reference in its entirety.
COH-SR4 and a chemotherapy drug (TMZ, SN38, CPT-11, or 5-FU) were dissolved in DMSO individually, and then diluted to the appropriate concentration in the same cell culture media before applying to cells of each cell line. After 4 days, the amount of ATP present in the cell lysates were assessed using Progema's CellGlo kit. The CI of each combination of COH-SR4 and the chemotherapy drug was calculated and plotted against the concentration of COH-SR4 for each concentration of the chemotherapy drug used.

[2] = tested on: SKOV3, MADH2744 and A2780 DPPr cells; test: Ovarian cancer cell viability, cellular acid phosphatase activity; type: cell-based, human; details: 48 hours, 0-10 μM
Experimental: SKOV3 is a cisplatin resistant human ovarian cancer cell line. Human ovarian cancer cells (SKOV3, MADH2744, and […]) were incubated with COH-SR4 at various concentrations (0˜10 μM) or without COH-SR4 for 48 hours. Cells Viabilities were determined by measuring cellular acid phosphatase activities. Data were represented as a ratio to vehicle (DMSO) control.

O=C(Nc1cc(Cl)cc(Cl)c1)Nc1cc(Cl)cc(Cl)c1 [COH-SR4, 1,3-bis(3,5-dichlorophenyl) urea]
IC50 (A2058): 11000 ± 2000 nM
cells accumulated in G2 phase (G2/M phase arrest) [1]: ~50%
IC50 (PBT-017; Table 1): 2000 nM
IC50 (PBT-017; Table 2): 2100 nM
intracellular ROS (H2DCFDA+ cells) (U251 glioma cells): ROS increased
IC50 (PBT018): 6500 nM
IC50 (U87): 2800 nM
colony formation (SK-Mel-5): 22±8%
apoptosis (annexin V / propidium iodide) (A2058 cells): caused apoptosis in A2058 cells in a dose-dependent manner
combination effect (CI) with 5-FU (PBT-017 glioma cells; COH-SR4 <0.05 μM + 5-FU >250 μM): Additive effects
combination effect (CI) with CPT-11 (PBT-017 glioma cells; COH-SR4 <0.5 μM + CPT-11 <0.0625 μM): Synergism
combination effect (CI) with SN-38 (PBT-017 glioma cells; COH-SR4 <0.5 μM + SN-38 <0.0004 μM): Synergism
combination effect (CI) with TMZ (PBT-017 glioma cells; COH-SR4 <0.5 μM + TMZ 25 μM): Synergism
combination effect (CI) with TMZ (PBT-017 glioma cells; COH-SR4 <1.0 μM + TMZ >100 μM): Additive effects
combination effect (CI) with SN-38 (PBT-017 glioma cells; COH-SR4 >0.5 μM + SN-38 <0.001 μM): Additive effects
combination effect (CI) with CPT-11 (PBT-017 glioma cells; COH-SR4 >1.0 μM + CPT-11 <0.5 μM): Additive effects
cytotoxicity on regular and cisplatin-resistant ovarian cancer cells [2]: dose-dependent cytotoxicity and anti-proliferative effects
